Experimental data from patent publication US20190315823A1, “SMALL CATIONIC ANTI-BIOFILM AND IDR PEPTIDES” (priority 2013, published 2019).
Ends that are not written are not given here.

Legend:
[1] = test system: LPS-stimulated human peripheral blood mononuclear cells (IL1-β); assay type: cell-based; conditions: Table 12, cells stimulated with 10 ng/ml LPS; for IL1β Production: LPS alone 1313 (HH2 derivatives), 1927 (1018 derivatives), 2455 (1002 and hybrid peptides) pg/ml
Procedure: LPS from P. aeruginosa strain H103 was highly purified free of proteins and lipids using the Darveau-Hancock method. Briefly, P. aeruginosa was grown overnight in LB broth at 37° C. Cells were collected and washed and the isolated LPS pellets were extracted with a 2:1 chloroform:methanol solution to remove contaminating lipids. Purified LPS samples were quantitated using an assay for the specific sugar 2-keto-3-deoxyoctosonic acid (KDO assay) and then resuspended in endotoxin-free water (Sigma-Aldrich).

[2] = test system: methicillin resistant Staphylococcus aureus (MRSA) biofilm; conditions: approximate peptide concentration […] (around 3 μg/ml); compared to untreated samples
Procedure: Methods of assessment of anti-biofilm activity—Biofilm formation was initially analyzed using a static abiotic solid surface assay as described elsewhere (de la Fuente-Nunez et al., 2012). Dilutions (1/100) of overnight cultures were incubated in BM2 biofilm-adjusted medium [62 mM potassium phosphate buffer (pH 7), 7 mM (NH4)2SO4, 2 mM MgSO4, 10 μM FeSO4, 0.4% (wt/vol) glucose, 0.5% (wt/vol) Casamino Acids], or a nutrient medium such as Luria Broth, in polypropylene microtiter plates (Falcon, United States) in the absence (control) or presence of peptide. Peptide was added at time zero (prior to adding the diluted, overnight cultures) in varying concentrations, and the decrease in biofilm formation was recorded at 22-46 h for most bacteria. Planktonic cells were removed, biofilm cells adhering to the side of the tubes were stained with crystal violet, and absorbance at 595 nm was measured using a microtiter plate reader (Bio-Tek Instruments Inc., United States). Some peptides were screened against two Gram negative organisms, P. aeruginosa and K. pneumoniae using a Bioflux apparatus (AutoMate Scientific, Berkeley, Calif.; http://www.autom8.com/bioflux_biofilm.html), which allows for the high-throughput, real-time analysis of biofilms.

[3] = test system: human peripheral blood mononuclear cells (MCP-1); assay: SPOT-synthesized derivative screen: production of chemokine MCP-1; assay type: cell-based; conditions: Table 12, No LPS, human PBMC, peptide at ~18-24 μM; for MCP1: background subtracted 139 (HH2 derivatives), 170 (1018 derivatives), 242 (1002 and hybrid peptides) pg/ml
Procedure: Venous blood (20 ml) from healthy volunteers was collected in Vacutainer® collection tubes containing sodium heparin as an anticoagulant (Becton Dickinson, Mississauga, ON) in accordance with UBC ethical approval and guidelines. Blood was diluted 1:1 with complete RPMI 1640 medium and separated by centrifugation over a Ficoll-Paque® Plus (Amersham Biosciences, Piscataway, N.J., USA) density gradient. White blood cells were isolated from the buffy coat, washed twice in RPMI 1640 complete medium, and the number of peripheral blood mononuclear cells (PBMC) was determined by Trypan blue exclusion. PBMC (5×10^5) were seeded into 12-well tissue culture dishes (Falcon; Becton Dickinson) at 0.75 to 1×10^6 cells/ml at 37° C. in 5% CO2. The above conditions were chosen to mimic conditions for circulating blood monocytes entering tissues at the site of infection via extravasation.
Following incubation of the cells under various treatment regimens, the tissue culture supernatants were centrifuged at 1000×g for 5 min, then at 10,000×g for 2 min to obtain cell-free samples. Supernatants were aliquoted and then stored at −20° C. prior to assay for various chemokines by capture ELISA (eBioscience and BioSource International Inc., CA, USA respectively)

Row | Substance | Fold change in IL1β relative to no peptide LPS stimulated cells [1] | IL1β Production [1] | % Biofilm inhibition [2] | Fold increase in MCP1 cf. untreated cells [3] | MCP1 [3]
1 | 1002-I8: single substituted 1002 peptide (VQRWLIVIRIRK-NH2) [Peptide 1002-I8] | 0.06 | 144 pg/mL | 69% | 6.7 | 1393.2 pg/mL
2 | 1002-I9: single substituted 1002 peptide (VQRWLIVWIIRK-NH2) [Peptide 1002-I9] | 0.06 | 158 pg/mL | 53% | 3.5 | 605.9 pg/mL
3 | 1002-I11: single substituted 1002 peptide (VQRWLIVWRIIK-NH2) [Peptide 1002-I11] | 0.05 | 127 pg/mL | 67% | 2.0 | 238.8 pg/mL
4 | 1002-I12: single substituted 1002 peptide (VQRWLIVWRIRI-NH2) [Peptide 1002-I12] | 0.05 | 127 pg/mL | 66% | 0.9 | -36.2 pg/mL
5 | 1002-K1: single substituted 1002 peptide (KQRWLIVWRIRK-NH2) [Peptide 1002-K1] | 0.05 | 127 pg/mL | 75% | 26.4 | 6146.9 pg/mL
6 | 1002-K2: single substituted 1002 peptide (VKRWLIVWRIRK-NH2) [Peptide 1002-K2] | 0.05 | 127 pg/mL | 69% | 2.6 | 392.4 pg/mL
7 | 1002-K3: single substituted 1002 peptide (VQKWLIVWRIRK-NH2) [Peptide 1002-K3] | 0.06 | 137 pg/mL | 61% | 3.4 | 576.2 pg/mL
8 | 1002-K4: single substituted 1002 peptide (VQRKLIVWRIRK-NH2) [Peptide 1002-K4] | 0.43 | 1065 pg/mL | 0% | 1.4 | 106.3 pg/mL
9 | 1002-K5: single substituted 1002 peptide (VQRWKIVWRIRK-NH2) [Peptide 1002-K5] | 0.14 | 339 pg/mL | 79% | 3.4 | 592.6 pg/mL
10 | 1002-K6: single substituted 1002 peptide (VQRWLKVWRIRK-NH2) [Peptide 1002-K6] | 0.33 | 808 pg/mL | 2% | 0.9 | -36.2 pg/mL
11 | 1002-K7: single substituted 1002 peptide (VQRWLIKWRIRK-NH2) [Peptide 1002-K7] | 0.12 | 302 pg/mL | 28% | 0.9 | -36.2 pg/mL
12 | 1002-K8: single substituted 1002 peptide (VQRWLIVKRIRK-NH2) [Peptide 1002-K8] | 0.66 | 1632 pg/mL | 0% | 0.9 | -36.2 pg/mL
13 | 1002-K9: single substituted 1002 peptide (VQRWLIVWKIRK-NH2) [Peptide 1002-K9] | 0.05 | 127 pg/mL | 50% | 1.6 | 143.9 pg/mL
14 | 1002-K10: single substituted 1002 peptide (VQRWLIVWRKRK-NH2) [Peptide 1002-K10] | 0.05 | 127 pg/mL | 0% | 0.9 | -32.5 pg/mL
15 | 1002-K11: single substituted 1002 peptide (VQRWLIVWRIKK-NH2) [Peptide 1002-K11] | 0.05 | 127 pg/mL | 74% | 3.2 | 543.3 pg/mL
16 | 1002-L1: single substituted 1002 peptide (LQRWLIVWRIRK-NH2) [Peptide 1002-L1] | 0.05 | 127 pg/mL | 69% | 13.3 | 2988.6 pg/mL
17 | 1002-L2: single substituted 1002 peptide (VLRWLIVWRIRK-NH2) [Peptide 1002-L2] | 0.05 | 127 pg/mL | 72% | 9.1 | 1968.2 pg/mL
18 | 1002-L3: single substituted 1002 peptide (VQLWLIVWRIRK-NH2) [Peptide 1002-L3] | 0.05 | 127 pg/mL | 59% | 1.4 | 106.3 pg/mL
19 | 1002-L4: single substituted 1002 peptide (VQRLLIVWRIRK-NH2) [Peptide 1002-L4] | 0.12 | 283 pg/mL | 33% | 3.0 | 493.6 pg/mL
20 | 1002-L6: single substituted 1002 peptide (VQRWLLVWRIRK-NH2) [Peptide 1002-L6] | 0.05 | 127 pg/mL | 52% | 1.3 | 68.0 pg/mL
